Results published in patent US8993566B2, “Quinoline compound composing 1,2,4-triazine-dione and use thereof” (Wuhan Shengyun Biopharma Co., Ltd., priority 2012, dated 2015).
Values after ≈ are worked out from the molar mass of the structure shown. Where two headings read alike, the source gives them in different places.

Tests used:
[1] = system: human nonsmall-cell lung cancer cell H460; assay: In vitro anti-tumor cell activity (MTT), H460; format: cell-based; conditions: for IC50: Homo sapiens, read-out: H460 IC50
Protocol: (§1) The digested cell solution was poured into a centrifuge tube, to which a culture media was added to stop the digestion. The centrifuge tube was centrifuged at 800 r/min for 10 min, the supernatant was removed gently and then 5 mL of the culture media was added. The cells were pipetted and mixed homogeneously. 10 μL cell suspension was taken into a cell counting plate for counting, wherein the cell concentration was adjusted to 10^4 cells/well. To each well of a 96-well plate, except for A1 well as blank control, was added 100 μL of the cell suspension. The 96-well plate was placed in an incubator and cultivated for 24 h. […] The 96-well plate was placed in an incubator and cultivated for 72 h. (3) The culture media containing the compounds in the 96-well plate was removed, and the cells were washed with phosphate buffered solution (PBS) twice. To each well was added 100 μL MTT (tetrazole) (0.5 mg/mL), after placing the plate in an incubator to incubate for 4 h, the MTT solution was removed and 100 μL dimethyl sulfoxide was added. The reaction product of survival cells with MTT, i.e. formazan, was dissolved completely by oscillation on a magnetic oscillator, and then placed into a microplate reader to measure the results, and the IC50 values of compounds could be deduced by Bliss method.

[2] = system: human colon cancer cell HT-29; assay: In vitro anti-tumor cell activity (MTT), HT-29; format: cell-based; conditions: for IC50: Homo sapiens, read-out: HT-29 IC50
Protocol: as §1

[3] = system: human gastric cancer cell MKN-45; assay: In vitro anti-tumor cell activity (MTT), MKN-45; format: cell-based; conditions: for IC50: Homo sapiens, read-out: MKN-45 IC50
Protocol: as §1

[4] = system: human hepatoma carcinoma cell line SMMC-7721; assay: In vitro anti-tumor cell activity (MTT), SMMC-7721; format: cell-based; conditions: for IC50: Homo sapiens, read-out: SMMC-7721 IC50
Protocol: as §1

[5] = target: T1, c-Met kinase (His-tagged recombinant human Met (amino acids 974-end)) (Homo sapiens, UniProt P08581); assay: c-Met Enzyme Activity Inhibition Assay (ELISA); format: biochemical; conditions: 50 pM c-Met, 5 μM ATP, room temperature 20 min; for IC50: read-out: IC50 for inhibiting c-Met kinase (converted)
T1 construct: His-tagged recombinant human Met (amino acids 974-end); His
Protocol: c-Met Enzyme Activity Inhibition Assay
The assay for the determination of c-Met kinase activity is based on an enzyme linked immunosorbant assay (ELISA). A compound of Formula I, 50 pM c-Met (His-tagged recombinant human Met (amino acids 974-end), expressed by baculovirus), and 5 μM ATP in an assay buffer (25 mM MOPS, pH 7.4, 5 mM MgCl2, […], 100 μM sodium orthovanadate, 0.01% Triton X-100, 1 mM DTT, final DMSO concentration 1% (v/v)) were incubated on a plate coated with 0.25 mg/mL POT at room temperature for 20 min. The reaction mixture was removed by washing and the phosphorylated polymer substrate was detected with 0.2 μg/mL phosphotyrosine specific monoclonal antibody (PY20) conjugated to horseradish peroxidase (HRP). After the addition of 1M phosphoric acid to stop the development, the chromogenic substrate (TMB) color was quantitated by spectrophotometry at 450 nm.

[6] = H460 cells, MTT, 72 h, Bliss method
[7] = HT-29 cells, MTT, 72 h, Bliss method
[8] = MKN-45 cells, MTT, 72 h, Bliss method
[9] = SMMC-7721 cells, MTT, 72 h, Bliss method
[10] = NCI-H460, H460 cells, MTT, 72 h, Bliss method

T1 sequence (P08581 956-1390): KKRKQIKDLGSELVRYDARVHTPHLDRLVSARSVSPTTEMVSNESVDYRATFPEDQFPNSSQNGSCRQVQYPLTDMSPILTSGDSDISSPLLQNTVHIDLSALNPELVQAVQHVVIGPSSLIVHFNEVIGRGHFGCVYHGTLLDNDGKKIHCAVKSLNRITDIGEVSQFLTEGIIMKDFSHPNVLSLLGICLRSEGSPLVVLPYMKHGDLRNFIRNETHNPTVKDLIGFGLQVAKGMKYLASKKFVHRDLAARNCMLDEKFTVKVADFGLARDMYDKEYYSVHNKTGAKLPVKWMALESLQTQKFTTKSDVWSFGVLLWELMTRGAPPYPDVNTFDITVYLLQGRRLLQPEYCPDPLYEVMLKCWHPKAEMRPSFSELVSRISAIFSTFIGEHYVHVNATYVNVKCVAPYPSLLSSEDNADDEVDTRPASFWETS

Row | Molecule | H460 IC50 [1, 6] [µg/mL] | HT-29 IC50 [2, 7] [µg/mL] | MKN-45 IC50 [3, 8] [µg/mL] | SMMC-7721 IC50 [4, 9] [µg/mL] | IC50 for inhibiting c-Met kinase [5] [µg/mL] | IC50 ([1]; NCI-H460, 72 h) [µg/mL] | IC50 ([2]; HT-29, 72 h) [µg/mL] | IC50 ([3]; MKN-45, 72 h) [µg/mL] | IC50 ([4]; SMMC-7721, 72 h) [µg/mL] | IC50 [5] [nM] | IC50 [1, 10] [µg/mL] | IC50 [2, 7] [µg/mL] | IC50 [3, 8] [µg/mL] | IC50 [4, 9] [µg/mL]
1 | N-[3-fluoro-4-[7-methoxy-6-[3-(4-methyl-1-piperidinyl)propyloxy]quinolin-4-oxy]phenyl]-2-(2-trifluoromethylphenyl)-4-allyl-3,5-dioxo-2,3,4,5-tetrahydro-1,2,4-triazine-6-carboxamide [Example 36] | 1.7 | 0.43 | 0.21 | 2.4 | 1.1 |  |  |  |  |  |  |  |  | 
2 | COc1cc2c(Oc3ccc(NC(=O)c4nn(-c5ccccc5)c(=O)n(C)c4=O)cc3F)ccnc2cc1OCCCN1CCCC1 [Example 1, N-[3-fluoro-4-[6-methoxy-7-[3-(tetrahydropyrrol-1-yl)propyloxy]quinolin-4-oxy]phenyl]-2-phenyl-4-methyl-3,5-dioxo-2,3,4,5-tetrahydro-1,2,4-triazine-6-carboxamide] |  |  |  |  |  | 0.26 (≈ 0.406 µM) | 0.12 (≈ 0.187 µM) | 0.042 (≈ 0.0656 µM) | 0.18 (≈ 0.281 µM) | 71.8 |  |  |  | 
3 | COc1cc2c(Oc3ccc(NC(=O)c4nn(-c5ccc(F)c(F)c5)c(=O)n(C)c4=O)cc3F)ccnc2cc1OCCCN1CCCC1 [Example 16, N-[3-fluoro-4-[6-methoxy-7-[3-(1-pyrrolidyl)propyloxy]quinolin-4-oxy]phenyl]-2-(3,4-difluorophenyl)-4-methyl-3,5-dioxo-2,3,4,5-tetrahydro-1,2,4-triazine-6-carboxamide] |  |  |  |  |  |  |  |  |  | 783 | 0.22 (≈ 0.325 µM) | 0.3 (≈ 0.443 µM) | 0.027 (≈ 0.0399 µM) | 0.34 (≈ 0.502 µM)
4 | N-[3-fluoro-4-[6-methoxy-7-[3-(1-pyrrolidyl)propyloxy]quinolin]-4-oxy]phenyl]-2-(4-fluorophenyl)-4-allyl-3,5-dicarbonyl-2,3,4,5-tetrahydro-1,2,4-triazine-6-carboxamide [Example 42] | 1.1 | 0.77 | 0.11 | 0.92 | 1.63 |  |  |  |  |  |  |  |  | 
5 | N-[3-fluoro-4-[6-methoxy-7-(3-(4-methyl-1-piperazinyl)propyloxy)quinolin-4-oxy]phenyl]-2-(3-trifluoromethylphenyl)-4-methyl-3,5-dicarbamoyl-2,3,4,5-tetrahydro-1,2,4-triazine-6-carboxamide [Example 25] | 0.52 | 0.05 | 0.014 | 0.07 | 1.01 |  |  |  |  |  |  |  |  | 
6 | COc1cc2c(Oc3ccc(NC(=O)c4nn(-c5ccc(F)c(F)c5)c(=O)n(C)c4=O)cc3F)ccnc2cc1OCCCN1CCCCC1 [Example 17, N-[3-fluoro-4-[6-methoxy-7-[3-(1-piperidinyl)propyloxy]quinolin-4-oxy]phenyl]-2-(3,4-difluorophenyl)-4-methyl-3,5-dioxo-2,3,4,5-tetrahydro-1,2,4-triazine-6-carboxamide] |  |  |  |  |  |  |  |  |  | 420 | 0.22 (≈ 0.319 µM) | 0.3 (≈ 0.434 µM) | 0.027 (≈ 0.0391 µM) | 0.19 (≈ 0.275 µM)
7 | N-[3-fluoro-4-[7-methoxy-6-[3-(1-pyrrolidyl)propyloxy]quinolin-4-oxy]phenyl]-2-(3-fluorophenyl)-4-butyl-3,5-dioxo-2,3,4,5-tetrahydro-1,2,4-triazine-6-carboxamide [Example 30] | 0.18 | 0.11 | 0.043 | 0.46 | 0.058 |  |  |  |  |  |  |  |  | 
8 | COc1cc2c(Oc3ccc(NC(=O)c4nn(-c5ccccc5)c(=O)n(C)c4=O)cc3F)ccnc2cc1OCCCN1CCOCC1 [Example 3, N-[3-fluoro-4-[6-methoxy-7-[3-(4-morpholinyl)propyloxy]quinolin-4-oxy]phenyl]-2-phenyl-4-methyl-3,5-dioxo-2,3,4,5-tetrahydro-1,2,4-triazine-6-carboxamide] |  |  |  |  |  |  |  |  |  | 88.3 | 0.17 (≈ 0.259 µM) | 0.14 (≈ 0.213 µM) | 0.059 (≈ 0.0898 µM) | 0.1 (≈ 0.152 µM)
9 | N-[3-fluoro-4-[6-methoxy-7-[3-(1-piperidinyl)propyloxy]quinolin]-4-oxy]phenyl]-2-(2-fluorophenyl)-4-allyl-3,5-dicarbonyl-2,3,4,5-tetrahydro-1,2,4-triazine-6-carboxamide [Example 40] | 1.0 | 0.26 | 0.05 | 3.1 | 5.1 |  |  |  |  |  |  |  |  | 
10 | COc1cc2c(Oc3ccc(NC(=O)c4nn(-c5ccc(F)c(F)c5)c(=O)n(C)c4=O)cc3F)ccnc2cc1OCCCN1CCOCC1 [Example 18, N-[3-fluoro-4-[6-methoxy-7-[3-(4-morpholinyl)propyloxy]quinolin-9-oxy]phenyl]-2-(3,4-difluorophenyl)-4-methyl-3,5-dioxo-2,3,4,5-tetrahydro-1,2,4-triazine-6-carboxamide] | 0.57 | 0.3 | 0.0008 | 0.45 | 0.32 |  |  |  |  |  |  |  |  | 
11 | C=CCn1c(=O)c(C(=O)Nc2ccc(Oc3ccnc4cc(OCCCN5CCOCC5)c(OC)cc34)c(F)c2)nn(-c2ccc(Br)cc2)c1=O [Example 39] | 1.4 | 0.83 | 0.19 | 2.1 | 1.8 |  |  |  |  |  |  |  |  | 
12 | N-[3-fluoro-4-[6-methoxy-7-[3-(1-piperidinyl)propyloxy]quinolin-4-oxy]phenyl]-2-(3-trifluoromethylphenyl)-4-methyl-3,5-dicarbonyl-2,3,4,5-tetrahydro-1,2,4-triazine-6-carboxamide [Example 22] | 0.26 | 0.12 | 0.006 | 0.18 | 0.57 |  |  |  |  |  |  |  |  | 
13 | N-[3-fluoro-4-[7-methoxy-6-[3-(4-morpholinyl)propyloxy]quinolin-4-oxy]phenyl]-2-(3-trifluoromethylphenyl)-4-butyl-3,5-dicarbonyl-2,3,4,5-tetrahydro-1,2,4-triazine-6-carboxamide [Example 34] | 0.028 | 0.11 | 0.013 | 0.18 | 0.017 |  |  |  |  |  |  |  |  | 
